# Experimental data: patent US6915969B2, “Method and installation for making flour from ozone-treated grains” (Green Technologies Sarl, priority 1999, dated 2005)
# Experiment: reduction of pesticide contaminants
# Set-up: species or system wheat
# Conditions: after treatment by the method of the invention (ozone)
# Excerpt: A reduction of about 80% in the content of Chlorpyriphosmethyl (a pesticide generally used in the case of wheat) was thus observed, thus leading certainly to a product which is perfectly acceptable from the point of view of the current food standards.
smiles,measurement,value
COP(=S)(OC)Oc1nc(Cl)c(Cl)cc1Cl [Chlorpyriphosmethyl],reduction in the content of Chlorpyriphosmethyl,about 80%
